Reference: US4065354A, “Lysozyme conjugates for enzyme immunoassays” (priority 1975, dated 1977)

What was measured:
amphetamine antibody = experiment: amphetamine lysozyme conjugate enzyme immunoassay, cross-reactivity; format: binding; conditions: related to 1μg/ml amphetamine; 50μl of urine
Protocol: The next drug to be considered is amphetamine. Again, the same procedure is employed for lysozyme as for the prior assays, except that 50μl of urine is employed. The relative reactivity is related to 1μg/ml amphetamine.

morphine antibodies [1] = experiment: homogeneous enzyme immunoassay with morphine conjugate to lysozyme, cross-reactivity
morphine antibodies [2] = experiment: inhibition of Example 2 morphine-lysozyme conjugate by antibody and recovery by morphine; format: biochemical
methadone antibody = experiment: methadone lysozyme conjugate enzyme immunoassay (sensitivity, cross-reactivity); conditions: relative to methadone at 0.5μg/ml; ratio of concentrations giving the same optical density reading
thyroxine antibodies = experiment: activity of thyroxine-lysozyme conjugate (Example 17), inhibition by antibody, return by thyroxine; format: biochemical
[3] = compound concentration 300 μg/ml
[4] = compound concentration 0.3 μg/ml

NCCc1ccccc1 [Phenethylamine]
Relative Reactivity (amphetamine antibody): 0.2

CNC(C)CC1CCCC1 (stereo not drawn) [Cyclopentamine]
Relative Reactivity (amphetamine antibody): 0.33

CC(C)=CCN1CCC2(C)c3cc(O)ccc3CC1C2C (stereo not drawn) [Pentazocine]
Percent max. rate (morphine antibodies [1]; [3]): 3%

CNC(C)CC1CCCCC1 (stereo not drawn) [Propylhexedrine]
Relative Reactivity (amphetamine antibody): 0.05

COC(=O)[C@H]1[C@@H](OC(=O)c2ccccc2)C[C@@H]2CC[C@H]1N2C [Cocaine]
Percent max. rate (morphine antibodies [1]; [3]): 2%

2: 0^3 -methoxyimidoylmethylmorphine conjugated to lysozyme [Example 2]
recovery of enzyme activity upon addition of aqueous morphine (morphine antibodies [2]; antibody-inhibited conjugate): full recovery of activity
inhibition of conjugate enzyme activity by morphine antibodies (morphine antibodies [2]; dialysate of Example 2): could be inhibited by morphine antibodies

CCC1(c2ccccc2)C(=O)NC(=O)NC1=O [Phenobarbital]
Percent max. rate (morphine antibodies [1]; [3]): 0%

CCC(=O)C(CC(C)N(C)C)(c1ccccc1)c1ccccc1 (stereo not drawn) [Methadone]
Relative Reactivity (methadone antibody): 1
Percent max. rate (morphine antibodies [1]; compound concentration 30 μg/ml (8.7 × 10^-5 M)): 1%

CCC(=O)O[C@](Cc1ccccc1)(c1ccccc1)[C@H](C)CN(C)C [Dextropropoxyphene]
Relative Reactivity (methadone antibody): 0.00089

CN[C@@H](C)Cc1ccccc1 [Methamphetamine]
Relative Reactivity (amphetamine antibody): 1.1

CN(C)CCCN1c2ccccc2Sc2ccc(Cl)cc21 [Chlorpromazine]
Relative Reactivity (methadone antibody): 0.011

CCC(=O)O[C@](Cc1ccccc1)(c1ccccc1)[C@H](C)CN(C)C [Darvon]
Percent max. rate (morphine antibodies [1]; [3]): 4%

COc1ccc2c(c1)[C@]13CCCC[C@@H]1[C@H](C2)N(C)CC3 [Dextromethorphan]
Relative Reactivity (methadone antibody): 0.0042

CC(CN1c2ccccc2Sc2ccccc21)N(C)C (stereo not drawn) [Phenergan]
Relative Reactivity (methadone antibody): 0.0125

CC(N)Cc1ccccc1 (stereo not drawn) [Amphetamine]
Relative Reactivity (amphetamine antibody): 1

CC(CCc1ccccc1)NC(C)C(O)c1ccc(O)cc1 (stereo not drawn) [Nylidrin]
Relative Reactivity (amphetamine antibody): 0.27

CC(N)C(O)c1ccccc1 (stereo not drawn) [Phenylpropanolamine]
Relative Reactivity (amphetamine antibody): 0.33

Morphine glucuronide
Percent max. rate (morphine antibodies [1]; [4]): 4%
Percent max. rate (morphine antibodies [1]; compound concentration 10 μg/ml (2.1 × 10^-5 M)): 77%

CN1CC[C@]23c4c5ccc(O)c4O[C@H]2[C@@H](O)C=C[C@H]3[C@H]1C5 [Morphine]
Percent max. rate (morphine antibodies [1]; [4]): 5%
Percent max. rate (morphine antibodies [1]; compound concentration 3 μg/ml): 67%

CNC(C)(C)Cc1ccccc1 [Mephentermine]
Relative Reactivity (amphetamine antibody): 0.62

CC(C)(N)Cc1ccccc1 [phentermine]
Relative Reactivity (amphetamine antibody): 0.62

COc1ccc2c3c1O[C@H]1[C@@H](O)C=C[C@H]4[C@@H](C2)N(C)CC[C@@]341 [Codeine]
Percent max. rate (morphine antibodies [1]; [4]): 7%
Percent max. rate (morphine antibodies [1]; compound concentration 3 μg/ml): 90%

CC(N)Cc1ccc(O)cc1 (stereo not drawn) [p-Hydroxyamphetamine]
Relative Reactivity (amphetamine antibody): 0.022

CN(C)CCCN1c2ccccc2Sc2ccc(Cl)cc21 [Thorazine]
Percent max. rate (morphine antibodies [1]; compound concentration 35 μg/ml (9.9 × 10^-5 M)): 6%

CN[C@@H](C)[C@H](O)c1ccccc1 [Ephedrine]
Relative Reactivity (amphetamine antibody): 0.22

Hydromorphine
Percent max. rate (morphine antibodies [1]; [4]): 6%
Percent max. rate (morphine antibodies [1]; compound concentration 3 μg/ml): 55%

CC(COc1ccccc1)NC(C)C(O)c1ccc(O)cc1 (stereo not drawn) [Isoxsuprine]
Relative Reactivity (amphetamine antibody): 0.2

17: thyroxine methyl ester diglycolic acid derivative conjugated to lysozyme [Example 17]
inhibition by thyroxine antibodies (thyroxine antibodies): could be inhibited by thyroxine antibodies
activity after addition of thyroxine (thyroxine antibodies; antibody-inhibited conjugate): activity returned by the addition of thyroxine
enzyme activity of the conjugate (thyroxine antibodies; product after dialysis and centrifugation): active
